ChEMBL document CHEMBL3232809, “Synthesis, antibiotic activity and structure-activity relationship study of some 3-enaminetetramic acids” (2014)
Values after ≈ are worked out from the molar mass of the structure shown.

Columns and labels:
Assay type in all cases: functional
[1] = system: Pseudomonas aeruginosa; experiment: Antimicrobial activity against Pseudomonas aeruginosa ATCC 27853
[2] = system: Staphylococcus aureus; experiment: Antimicrobial activity against vancomycin-susceptible Staphylococcus aureus ATCC 25923
[3] = system: Enterococcus faecium; experiment: Antimicrobial activity against vancomycin-resistant Enterococcus faecium
[4] = system: Staphylococcus aureus; experiment: Antimicrobial activity against methicillin-resistant Staphylococcus aureus
[5] = system: Streptococcus pneumoniae; experiment: Antimicrobial activity against erythromycin-susceptible Streptococcus pneumoniae ATCC 49619
[6] = system: Escherichia coli; experiment: Antimicrobial activity against Escherichia coli 50
[7] = system: Escherichia coli; experiment: Antimicrobial activity against Escherichia coli ATCC 25922
[8] = system: Staphylococcus aureus; experiment: Antimicrobial activity against methicillin-sensitive Staphylococcus aureus ATCC 13709
[9] = system: Enterococcus faecalis; experiment: Antimicrobial activity against vancomycin-susceptible Enterococcus faecalis ATCC 29212
[10] = system: Staphylococcus aureus; experiment: Antimicrobial activity against Staphylococcus aureus Oxford
[11] = system: Haemophilus influenzae; experiment: Antimicrobial activity against LS2 Efflux knock-out Haemophilus influenzae
[12] = system: Streptococcus pneumoniae; experiment: Antimicrobial activity against penicillin- and erythromycin-resistant Streptococcus pneumoniae
[13] = system: Escherichia coli; experiment: Antimicrobial activity against Escherichia coli 49
[14] = system: Haemophilus influenzae; experiment: Antimicrobial activity against Haemophilus influenzae ATCC 31517 MMSA
[15] = system: Streptococcus pneumoniae; experiment: Antimicrobial activity against penicillin- and erythromycin-resistant Streptococcus pneumoniae in presence of 2.5% horse blood

| Compound | MIC [1] [µg/mL] | MIC [2] [µg/mL] | MIC [3] [µg/mL] | MIC [4] [µg/mL] | MIC [5] [µg/mL] | MIC [6] [µg/mL] | MIC [7] [µg/mL] | MIC [8] [µg/mL] | MIC [9] [µg/mL] | MIC [10] [µg/mL] | MIC [11] [µg/mL] | MIC [12] [µg/mL] | MIC [13] [µg/mL] | MIC [14] [µg/mL] | MIC [15] [µg/mL] |
| --- | --- | --- | --- | --- | --- | --- | --- | --- | --- | --- | --- | --- | --- | --- | --- |
| CCOC(=O)[C@]12CO[C@H](C(C)(C)C)N1C(=O)/C(=C(/CC13CC4CC(CC(C4)C1)C3)NC(C)CCCN(CC)CC)C2=O (stereo not given in full) | > 32 | 64 (≈ 109 µM) | 32 (≈ 54.6 µM) | 64 (≈ 109 µM) | 32 (≈ 54.6 µM) | > 32 | > 32 | 32 (≈ 54.6 µM) | 32 (≈ 54.6 µM) | 32 (≈ 54.6 µM) | 16 (≈ 27.3 µM) | 16 (≈ 27.3 µM) | > 32 | > 64 | 32 |
| CCOC(=O)[C@]12CO[C@H](C(C)(C)C)N1C(=O)/C(=C(\C)NCCCN1CCOCC1)C2=O | > 32 | > 32 | > 32 | > 32 | > 32 | > 32 | > 32 | > 32 | > 32 | > 32 | > 32 | > 32 | > 32 | > 32 | > 32 |
| CCCCCCCCCCC/C(Nc1ccc(N)cc1)=C1\C(=O)CN(CCCCCC)C1=O | > 32 | > 32 | > 32 | > 32 | > 32 | > 32 | > 32 | > 32 | > 32 | > 32 | > 32 | > 32 | > 32 | > 32 | > 32 |
| CCCCCCCCCC/C(NCCCOC(C)C)=C1\C(=O)C(CCSC)N(C(C)=O)C1=O (stereo not given) | > 32 | > 32 | > 32 | > 32 | > 32 | > 32 | > 32 | > 32 | > 32 | > 32 | > 32 | > 32 | > 32 | > 32 | > 32 |
| COC(=O)[C@]12CO[C@H](C(C)(C)C)N1C(=O)/C(=C(/CCCOc1ccccc1)NCCN1CCCCC1)C2=O | > 32 | > 32 | > 32 | > 32 | > 32 | > 32 | > 32 | > 32 | > 32 | > 32 | > 32 | > 32 | > 32 | > 32 | > 32 |
| CCOC(=O)[C@]12CO[C@H](C(C)(C)C)N1C(=O)/C(=C(\C)Nc1ncc(Cl)cn1)C2=O | > 32 | > 32 | > 32 | > 32 | > 32 | > 32 | > 32 | > 32 | > 32 | > 32 | > 32 | > 32 | > 32 | > 32 | > 32 |
| CCCCCCC(=O)N1CC(=O)/C(=C(\CCCCCC)NC2CCCCC2)C1=O | > 32 | > 32 | > 32 | > 32 | > 32 | > 32 | > 32 | > 32 | > 32 | > 32 | > 32 | > 32 | > 32 | > 32 | > 32 |
| C/C(NCCOc1ccccc1Cl)=C1/C(=O)[C@@H]2CCCC(=O)N2C1=O | > 32 | > 32 | > 32 | > 32 | > 32 | > 32 | > 32 | > 32 | > 32 | > 32 | > 32 | > 32 | > 32 | > 32 | > 32 |
| CCCC(=O)N1CC(=O)/C(=C(\CC23CC4CC(CC(C4)C2)C3)NCCCN2CCCCC2C)C1=O (stereo not given) | > 32 | 64 (≈ 132 µM) | 64 (≈ 132 µM) | 64 (≈ 132 µM) | 32 (≈ 66.2 µM) | > 32 | > 32 | 64 (≈ 132 µM) | 64 (≈ 132 µM) | 64 (≈ 132 µM) | 32 (≈ 66.2 µM) | 32 (≈ 66.2 µM) | > 32 | > 64 | 32 |
| CCOC(=O)[C@]12CO[C@H](C(C)(C)C)N1C(=O)/C(=C(/CC(F)(F)C(F)(F)C(F)(F)C(F)(F)C(F)(F)F)NCCCN1CCOCC1)C2=O | > 32 | 16 (≈ 22.7 µM) | 16 (≈ 22.7 µM) | 32 (≈ 45.4 µM) | 16 (≈ 22.7 µM) | > 32 | > 32 | 32 (≈ 45.4 µM) | 32 (≈ 45.4 µM) | 16 (≈ 22.7 µM) | 8 (≈ 11.3 µM) | 8 (≈ 11.3 µM) | > 32 | > 64 | 16 |
| CCCCCCN1CC(=O)/C(=C(/NC2CCCCC2)C2CCCCC2)C1=O | > 32 | > 64 | > 64 | > 64 | 2 (≈ 5.34 µM) | > 32 | > 32 | > 64 | > 64 | > 64 | > 64 | 2 (≈ 5.34 µM) | > 32 | > 64 | 64 |
| CCCCCCCCCCCCC/C(NCCCN)=C1\C(=O)CN(CCCCCC)C1=O | > 32 | 4 (≈ 8.89 µM) | 1 (≈ 2.22 µM) | 4 (≈ 8.89 µM) | 2 (≈ 4.45 µM) | > 32 | > 32 | 2 (≈ 4.45 µM) | 2 (≈ 4.45 µM) | 4 (≈ 8.89 µM) | 32 (≈ 71.2 µM) | 8 (≈ 17.8 µM) | > 32 | 64 (≈ 142 µM) | 32 |
| COC(=O)[C@@]12CO[C@@H](C(C)(C)C)N1C(=O)/C(=C(\C)NC13CC4CC(CC(C4)C1)C3)C2=O | > 32 | > 64 | > 64 | > 64 | > 64 | > 32 | > 32 | > 64 | > 64 | > 64 | 16 (≈ 37.2 µM) | > 64 | > 32 | > 64 | > 64 |
| C/C(Nc1ccccc1)=C1\C(=O)N2[C@H](C(C)(C)C)OC[C@@]2(C)C1=O (racemic) | > 32 | 64 (≈ 195 µM) | 32 (≈ 97.4 µM) | 64 (≈ 195 µM) | 8 (≈ 24.4 µM) | > 32 | > 32 | 64 (≈ 195 µM) | 64 (≈ 195 µM) | 64 (≈ 195 µM) | 8 (≈ 24.4 µM) | 8 (≈ 24.4 µM) | > 32 | > 64 | 8 |
| C/C(NC12CC3CC(CC(C3)C1)C2)=C1\C(=O)N2[C@H](C(C)(C)C)OC[C@@]2(C)C1=O (mixture of isomers) | > 32 | > 64 | > 64 | > 64 | > 64 | > 32 | > 32 | > 64 | > 64 | > 64 | 16 | > 64 | > 32 | > 64 | > 64 |
| CCCCCCCCCCC/C(NCCCOC(C)C)=C1\C(=O)CNC1=O | > 32 | > 64 | 8 (≈ 21 µM) | 64 (≈ 168 µM) | 4 (≈ 10.5 µM) | > 32 | > 32 | 16 (≈ 42 µM) | 16 (≈ 42 µM) | 16 (≈ 42 µM) | 2 (≈ 5.26 µM) | 4 (≈ 10.5 µM) | > 32 | > 64 | 32 |
| COC(=O)[C@@]12CO[C@@H](C(C)(C)C)N1C(=O)/C(=C(\C)NCC1CCC3CC1C3(C)C)C2=O (stereo not given in full) | > 32 | > 32 | > 32 | > 32 | > 32 | > 32 | > 32 | > 32 | > 32 | > 32 | > 32 | > 32 | > 32 | > 32 | > 32 |
| CCOC(=O)[C@]12CO[C@H](C(C)(C)C)N1C(=O)/C(=C(\C)NCCOc1ccccc1)C2=O | > 32 | 64 (≈ 149 µM) | 8 (≈ 18.6 µM) | 64 (≈ 149 µM) | 2 (≈ 4.65 µM) | > 32 | > 32 | 64 (≈ 149 µM) | 64 (≈ 149 µM) | > 64 | 32 (≈ 74.3 µM) | 1 (≈ 2.32 µM) | > 32 | > 64 | 2 |
| CCOC(=O)[C@]12CO[C@H](C(C)(C)C)N1C(=O)/C(=C(\C)NCc1cccc(CN3CCC(C)CC3)c1)C2=O | > 32 | > 32 | > 32 | > 32 | > 32 | > 32 | > 32 | > 32 | > 32 | > 32 | > 32 | > 32 | > 32 | > 32 | > 32 |
| CCCCCCCCC/C(=C1\C(=O)CNC1=O)N1CCCCC1 | > 32 | 16 (≈ 49.9 µM) | 8 (≈ 25 µM) | 16 (≈ 49.9 µM) | > 64 | > 32 | > 32 | 16 (≈ 49.9 µM) | 16 (≈ 49.9 µM) | 16 (≈ 49.9 µM) | > 64 | 16 (≈ 49.9 µM) | > 32 | 64 (≈ 200 µM) | 16 |
| CCCCC/C(NC(C)CCCN(CC)CC)=C1\C(=O)C(CCSC)N(C(=O)CC(C)CC(C)(C)C)C1=O (stereo not given) | > 32 | 16 (≈ 29 µM) | 8 (≈ 14.5 µM) | 16 (≈ 29 µM) | 8 (≈ 14.5 µM) | > 32 | > 32 | 16 (≈ 29 µM) | 16 (≈ 29 µM) | 8 (≈ 14.5 µM) | 8 (≈ 14.5 µM) | 4 (≈ 7.25 µM) | > 32 | > 64 | 8 |
